# Source: patent EP2333100B1, “NAD(P)+-cofactor regeneration system und its use” (priority 2009, dated 2011)
# Legend:
# Assay type in all cases: biochemical
# [1] = molecular target: T1, NADPH Dehydrogenase aus Sulfit-Reduktase (E. coli); Flavin-Subunit von Sulfit-Reduktase aus E. coli (Escherichia coli, UniProt P38038); test: NADPH oxidation with riboflavin as electron acceptor, tolerance to cholic acid; conditions: activity with 0,1 M Cholsäure, 100% = ohne Cholsäure; 10 µM Riboflavin, 100 µM NADPH, 50 mM Tris-HCl (pH 8)
# T1 construct: made in house; host or cells: E. coli (cell lysate)
# Protocol: (§1) Die NADPH-Oxidation unter Verwendung von Riboflavin als Elektronenakzeptor wurde in 1 ml Reaktionsmedium, enthaltend 2-50 µl Enzymlösung, 50 mM Tris-HCl (pH 8), 10 µM Riboflavin, 100 µM NADPH mit und ohne 0,1 M Cholsäure bestimmt. Die Oxidation von NADPH wurde über die Abnahme der Extinktion bei 340 nm spektrophotometrisch aufgezeichnet. Die Aktivitätseinheit (uM NADPH oxidiert/min) wurde mit Hilfes des millimolaren Extinktionscoeffizienten für NADPH von 6,22 mM^-1 cm^-1 bei 340 nm bestimmt.
# (§2) Folgende Enzyme wurden getestet: NADPH Dehydrogenase aus Bacillus stearothermophilus Sulfit Reduktase, Flavin-Subunit von Sulfit-Reduktase aus E. coli und NAD(P)H-Flavin Reduktase aus E. coli. Die Ergebnisse sind in folgender Tabelle 3 zusammengefasst: TABELLE 3
# [2] = molecular target: T2, NAD(P)H-Flavin Reduktase aus E. coli (EC 1.5.1.29 / 1.16.1.3), SEQ ID NO: 30 (Escherichia coli, UniProt P0AEN1); test: as above; conditions: activity with 0,1 M Cholsäure, 100% = ohne Cholsäure; 10 µM Riboflavin, 100 µM NADPH, 50 mM Tris-HCl (pH 8); read-out: Mit 0, 1 M Cholsäure, U/ml E. coli Zell-Lysate (%)
# T2 construct: made in house; host or cells: E. coli (cell lysate)
# Protocol: as §1, §2
# [3] = tested on: NADPH Dehydrogenase aus Bacillus stearothermophilus Sulfit Reduktase (EC 1.8.1.2), SEQ ID NO: 28; test: as above; conditions: activity with 0,1 M Cholsäure, 100% = ohne Cholsäure; 10 µM Riboflavin, 100 µM NADPH, 50 mM Tris-HCl (pH 8)
# Protocol: as §1, §2
# [4] = molecular target: Reduktase Domäne der CYP102A1 aus Bacillus megaterium (EC 1.6.2.4), SEQ ID NO: 24 (Priestia megaterium, UniProt P14779); test: NADPH oxidation with DCIP as electron acceptor, tolerance to cholic acid; conditions: remaining activity with 0,1 M Cholsäure, 100% = ohne Cholsäure; 75 µM DCIP, 100 µM NADPH, 50 mM Tris-HCl (pH 8); read-out: Mit 0, 1 M Cholsäure, U/mg Protein (%)
# Protocol: (§3) Die NADPH-Dehydrogenase Aktivität wurde unter Verwendung von Dichlorphenolindophenol (DCIP) als Substrat bestimmt. Die Reaktion wurde durch Zugabe von Enzym (2-50 µl) zu 1 ml Reaktionsgemisch, enthaltend 50 mM Tris-HCl (pH 8), 75 µM DCIP, 100 µM NADPH mit bzw. ohne 0,1 M Cholsäure gestartet. Die Reduktion von DCIP wurde durch Abnahme der Extinktion bei 600 nm spektrophotometrisch bestimmt. Die Aktivitätseinheit (µM DCIP reduziert/min) wurde mit Hilfe des Extinktions-Coeffizienten von DCIP von 20 mM^-1 cm^-1 bei 600 nm bestimmt.
# (§4) Folgende Enzyme wurden getestet: Flavodoxin Reduktase aus E. coli, Reduktase Domäne der CYP102A1 aus Bacillus megaterium; Glutathion Reduktase aus Saccharomyces cerevisiae und Diaphorase aus Clostridium kluyveri. Die Ergebnisse sind in der folgenden Tabelle 2 zusammengestellt.
# [5] = molecular target: T3, Flavodoxin Reduktase aus E. coli (EC 1.18.1.2), SEQ ID NO: 26 (Escherichia coli, UniProt P28861); test: as above; conditions: remaining activity with 0,1 M Cholsäure, 100% = ohne Cholsäure; 75 µM DCIP, 100 µM NADPH, 50 mM Tris-HCl (pH 8); read-out: Mit 0, 1 M Cholsäure, U/mg Protein (%)
# T3 construct: made in house; host or cells: E. coli
# Protocol: as §3, §4
# [6] = molecular target: T4, Glutathion Reduktase aus Saccharomyces cerevisiae (Saccharomyces cerevisiae, UniProt P41921); test: as above; conditions: remaining activity with 0,1 M Cholsäure, 100% = ohne Cholsäure; 75 µM DCIP, 100 µM NADPH, 50 mM Tris-HCl (pH 8); read-out: Mit 0, 1 M Cholsäure, U/mg Protein (%)
# T4 construct: purchased Sigma
# T4 sequence (P41921 1-467 isoform P41921-2): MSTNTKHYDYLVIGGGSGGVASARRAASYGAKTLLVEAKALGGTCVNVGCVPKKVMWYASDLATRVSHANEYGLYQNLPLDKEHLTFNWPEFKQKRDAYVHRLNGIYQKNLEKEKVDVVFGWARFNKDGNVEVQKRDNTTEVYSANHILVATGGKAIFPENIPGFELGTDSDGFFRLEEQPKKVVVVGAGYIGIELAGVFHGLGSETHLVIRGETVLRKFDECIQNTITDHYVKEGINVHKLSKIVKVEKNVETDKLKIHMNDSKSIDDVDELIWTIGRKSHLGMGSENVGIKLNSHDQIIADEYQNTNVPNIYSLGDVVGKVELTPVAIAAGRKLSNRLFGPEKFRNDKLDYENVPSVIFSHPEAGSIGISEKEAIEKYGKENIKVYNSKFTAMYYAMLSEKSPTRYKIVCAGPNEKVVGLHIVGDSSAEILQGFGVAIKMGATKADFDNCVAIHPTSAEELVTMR
# Protocol: as §3, §4
# [7] = tested on: Diaphorase aus Clostridium kluyveri; test: as above; conditions: remaining activity with 0,1 M Cholsäure, 100% = ohne Cholsäure; 75 µM DCIP, 100 µM NADPH, 50 mM Tris-HCl (pH 8)
# Protocol: as §3, §4
# [8] = molecular target: 12α-HSDH aus Clostridium sp. group P strain 48-50, Wildtypenzym (Clostridium sp., UniProt P21215); test: Product inhibition of 12α-HSDH by 12-ketochenodeoxycholic acid; conditions: loss of activity at 5 % Umsatz; 100 % = activity at 0 % Umsatz (5mM CS); product concentration not given
# Description: "Poduktinhibition" der 12α-HSDH beschreibt die Verringerung der enzymatischen Aktivität in Gegenwart eines bei einer durch das Enzym katalysierten enzymatischen Umsetzung gebildeten Produkts. Bei Umsetzung zu CS ist so z.B. eine Inhibition durch 12-Keto-CDCS zu beobachten. Eine "Verringerung der Produktinhibition" beschreibt die verringerte prozentuale Abnahme der Enzymaktivität einer erfindungsgemäß eingesetzten Enzymmutante im Vergleich zu einem Referenzsystem, wie z.B. dem nativen HSDH-Enzym, jeweils bezogen auf die bei 0 % Umsatz (entsprechend 5mM CS) ermittelte Enzymaktivität als 100 %-Aktivitätswert. Diese Verringerung kann, wie im experimentellen Teil, bzw. in der Legende zu Figur 9 beschrieben, bestimmt werden. Verringerungen der Produktinhibition können auch über das Verhältnis der Restaktivitäten von Mutante zu Referenzenzym jeweils bestimmt bei gleichem prozentualen Umsatz, ausgedrückt werden. So kann die ererfindungsgemäß eingesetzte Mutante eine um den Faktor 1,1 bis 100, wie z.B. 1,5 bis 20 oder 2 bis 10 erhöhte Aktivität besitzen.
# Die Aktivität wird wie folgt definiert: 1 U des Enzyms entspricht der Enzymmenge, welche die Umsetzung von 1 µmol/min einer 5 mM Cholsäurelösung in KaliumphosphatPuffer (50 mM, pH 8,0) bei Raumtemperatur (d.h. ca. 20 °C-23 °C) katalysiert. […]
# 12α-HSDH aus Clostridium sp. group P strain 48-50, Wildtypenzym, sequence (P21215 whole entry): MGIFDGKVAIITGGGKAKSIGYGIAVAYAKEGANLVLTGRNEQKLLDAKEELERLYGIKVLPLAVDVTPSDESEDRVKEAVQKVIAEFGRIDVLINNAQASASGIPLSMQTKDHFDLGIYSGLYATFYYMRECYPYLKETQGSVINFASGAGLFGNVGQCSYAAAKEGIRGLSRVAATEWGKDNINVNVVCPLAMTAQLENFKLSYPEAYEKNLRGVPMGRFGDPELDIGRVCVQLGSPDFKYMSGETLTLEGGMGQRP
# T3 sequence (P28861 whole entry): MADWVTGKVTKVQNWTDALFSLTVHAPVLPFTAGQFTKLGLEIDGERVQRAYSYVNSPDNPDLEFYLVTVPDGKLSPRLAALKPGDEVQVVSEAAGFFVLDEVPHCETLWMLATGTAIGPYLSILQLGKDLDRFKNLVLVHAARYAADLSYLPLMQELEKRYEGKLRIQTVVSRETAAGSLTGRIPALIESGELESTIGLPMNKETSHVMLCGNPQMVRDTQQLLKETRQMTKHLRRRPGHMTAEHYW
# T1 sequence (P38038 whole entry): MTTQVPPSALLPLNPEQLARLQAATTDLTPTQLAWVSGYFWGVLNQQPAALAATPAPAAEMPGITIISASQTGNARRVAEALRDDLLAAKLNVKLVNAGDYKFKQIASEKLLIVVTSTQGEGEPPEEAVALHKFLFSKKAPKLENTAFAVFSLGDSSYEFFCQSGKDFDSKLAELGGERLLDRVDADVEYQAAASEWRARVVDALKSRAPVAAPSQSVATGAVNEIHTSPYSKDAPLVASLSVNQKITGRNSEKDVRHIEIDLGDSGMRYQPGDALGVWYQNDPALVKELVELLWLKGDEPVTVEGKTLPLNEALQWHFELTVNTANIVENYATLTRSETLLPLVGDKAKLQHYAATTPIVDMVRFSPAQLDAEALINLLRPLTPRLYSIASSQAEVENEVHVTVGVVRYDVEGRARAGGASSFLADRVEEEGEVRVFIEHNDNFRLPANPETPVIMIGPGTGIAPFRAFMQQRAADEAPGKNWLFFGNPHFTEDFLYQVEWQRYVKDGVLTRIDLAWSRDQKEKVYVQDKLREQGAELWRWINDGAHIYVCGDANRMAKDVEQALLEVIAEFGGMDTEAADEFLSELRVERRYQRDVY
# T2 sequence (P0AEN1 whole entry): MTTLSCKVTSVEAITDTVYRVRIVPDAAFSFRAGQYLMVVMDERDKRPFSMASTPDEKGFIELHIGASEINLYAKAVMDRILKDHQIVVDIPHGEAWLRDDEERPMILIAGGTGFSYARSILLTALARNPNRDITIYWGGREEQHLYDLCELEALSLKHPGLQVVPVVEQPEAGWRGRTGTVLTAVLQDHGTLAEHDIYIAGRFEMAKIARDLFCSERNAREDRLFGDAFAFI
# Reduktase Domäne der CYP102A1 aus Bacillus megaterium (EC 1.6.2.4), SEQ ID NO: 24, sequence (P14779 473-1049): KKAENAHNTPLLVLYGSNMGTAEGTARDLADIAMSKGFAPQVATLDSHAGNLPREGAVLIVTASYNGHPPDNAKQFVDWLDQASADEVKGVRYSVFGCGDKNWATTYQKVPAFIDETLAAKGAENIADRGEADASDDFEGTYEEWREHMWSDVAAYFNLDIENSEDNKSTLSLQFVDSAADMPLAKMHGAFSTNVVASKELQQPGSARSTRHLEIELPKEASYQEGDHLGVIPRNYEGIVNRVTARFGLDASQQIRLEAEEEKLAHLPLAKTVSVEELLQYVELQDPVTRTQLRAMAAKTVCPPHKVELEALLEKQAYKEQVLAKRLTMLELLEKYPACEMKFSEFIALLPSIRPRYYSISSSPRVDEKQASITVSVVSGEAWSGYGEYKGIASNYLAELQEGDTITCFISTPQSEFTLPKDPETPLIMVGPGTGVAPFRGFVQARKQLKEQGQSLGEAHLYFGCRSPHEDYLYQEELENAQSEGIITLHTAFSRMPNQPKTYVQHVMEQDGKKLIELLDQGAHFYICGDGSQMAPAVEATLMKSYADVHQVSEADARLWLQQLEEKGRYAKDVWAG
Structure (SMILES),"Mit 0, 1 M Cholsäure, U/ml E. coli Zell-Lysate (%) [1]",activity at 100000 µM [2] [%],"Mit 0, 1 M Cholsäure, U/ml E. coli Zell-Lysate (%) [3]",activity at 100000 µM [4] [%],activity at 100000 µM [5] [%],activity at 100000 µM [6] [%],"Mit 0, 1 M Cholsäure, U/mg Protein (%) [7]",Verlust (Produktinhibierung durch 12-Ketochenodesoxycholsäure) [8] [%]
C[C@H](CCC(=O)O)[C@H]1CC[C@H]2[C@@H]3[C@H](O)C[C@@H]4C[C@H](O)CC[C@]4(C)[C@H]3C[C@H](O)[C@]12C [Cholsäure],"2,1 (6 %)",5,"22,1 (155 %)",35,93,15,"0,26 (3 %)",
C[C@H](CCC(=O)O)[C@H]1CC[C@H]2[C@@H]3[C@H](O)C[C@@H]4C[C@H](O)CC[C@]4(C)[C@H]3CC(=O)[C@]12C [12-Ketochenodesoxycholsäure],,,,,,,,60
